Test results: patent US7767682B2, “Medicaments” (GlaxoSmithKline LLC, priority 2005, dated 2010)
“Also recorded” adds a separate entry of the source. Counter-ions that a name gives are not always drawn. Bridge positions count the residues as written; N and C are the ends. Ends that are not written are not given here.

Columns and labels:
MDCK-C7 cells [1] = assay: Short-circuit current (SCC) ion transport response to ADH in MDCK-C7 monolayers in Ussing chambers; format: cell-based, canine; conditions: for initial rapid transient SCC response to ADH: 18 hrs pre-incubation before ADH
Method: The Madin-Darby canine kidney (MDCK) cell line expresses many characteristics of the renal collecting duct. The MDCK-C7 subclone forms a high-resistance, hormone-responsive model of the principal cells, which are found in distal sections of the renal tubule. The electrophysiological technique of short-circuit current measurement has been used to examine the response to antidiuretic hormone (ADH) in the MDCK-C7 clone.
The MDCK-C7cells were grown in a 37° C. humidified incubator with a 5% CO2 and […] gas mixture. Initially the cells were grown in 75 cm^2 flasks and fed with Minimal Media with Earle's salts, non-essential amino acids and L-glutamine (MEM; Gibco/BRL, Grand Island, N.Y., USA) supplemented with 10% fetal bovine serum (Sigma), 26 mM NaHCO3 and adjusted to pH 7.0. The confluent cells were subcultured by trypsinization and the cells were seeded (5.4×10^4 cell/cm^2) onto Nucleopore polycarbonate membranes forming the bottom of Transwell chambers (Costar, Cambridge, Mass., USA). The Transwell chambers were placed in specially designed tissue culture plates to form a two compartment system in which media are added to both apical and basolateral surfaces. The media were aspirated and replaced three times per week. The cells were used between passages 73 and 96.
Nucleopore filters (4.7 cm^2) containing confluent MDCK-C7 cells (10-16 days) were removed from the Transwell chambers and clamped between the halves of an Ussing chamber (World Precision Instruments, Sarasota, Fla.). Each half of the chamber contained a tapered fluid compartment with openings for voltage electrodes (close to the epithelial membrane) and current electrodes (at the opposite end of the chamber). The fluid chamber was water jacketed to maintain constant temperature (37° C.). The cells were bathed in serum-free MEM. The media were circulated in the chambers by means of a 5%CO2/O2 gas lift. […] Transepithelial resistance was calculated by applying a 2-mV pulse across the epithelium and measuring the resultant deflection in SCC. Data from cultures were used only if they maintained a resistance >1000 W cm^2. Transepithelial resistance (an indication of cellular viability) was monitored throughout the entire duration of each electrophysiological experiment by pulsing the tissues with a 2000 μV pulse every 200 seconds. Resistance values were calculated from the resulting current deflections using Ohm's law.
The cultures were placed in the Ussing chambers and incubated under short-circuited conditions until a steady baseline transport was achieved (0.5-1 h). In the experiments to characterize the ADH-induced ion transport phenomena, the cultures were pre-incubated with the inhibitors 30 minutes prior to the addition of ADH. In the experiments with GI262570X, compound was added 18 hrs. prior to the addition of ADH. ADH was added to the serosal bathing media; amiloride was added to the apical media 30 min after ADH to determine the portion of the transport due to flux through the amiloride-sensitive Na^+ channel. The concentrations of effectors used were: ADH, 0.1 IU/ml; amiloride, 30 μM; NPPB, 500 μM; verapamil, 25 μM, and GI262570X (concentration range from 1 nM -1 μM). Each experiment was performed using matched cultures grown in parallel. The data are presented as means±SE with n indicating the number of different experiments.

MDCK-C7 cells [2] = assay: Transepithelial resistance of MDCK-C7 monolayers (indication of cellular viability); format: cell-based, canine; conditions: at concentrations >10 μM; SCC response not measurable
Method: Nucleopore filters (4.7 cm^2) containing confluent MDCK-C7 cells (10-16 days) were removed from the Transwell chambers and clamped between the halves of an Ussing chamber (World Precision Instruments, Sarasota, Fla.). Each half of the chamber contained a tapered fluid compartment with openings for voltage electrodes (close to the epithelial membrane) and current electrodes (at the opposite end of the chamber). The fluid chamber was water jacketed to maintain constant temperature (37° C.). The cells were bathed in serum-free MEM. The media were circulated in the chambers by means of a 5%CO2/O2 gas lift. The electrodes were connected to a voltage-clamp amplifier (Current Voltage Clamp; World Precision Instruments) for measurement of net ion flux as monitored under short-circuit conditions (SCC; short circuit current) [Ussing, 1951]. Transepithelial resistance was calculated by applying a 2-mV pulse across the epithelium and measuring the resultant deflection in SCC. Data from cultures were used only if they maintained a resistance >1000 W cm^2. Transepithelial resistance (an indication of cellular viability) was monitored throughout the entire duration of each electrophysiological experiment by pulsing the tissues with a 2000 μV pulse every 200 seconds. Resistance values were calculated from the resulting current deflections using Ohm's law.

Compound: Cc1oc(-c2ccccc2)nc1CCOc1ccc(C[C@H](Nc2ccccc2C(=O)c2ccccc2)C(=O)O)cc1 [GI262570X, N-(2-benzoylphenyl)-O-[2-(5-methyl-2-phenyl-4-oxazolyl)ethyl]-L -tyrosine]
- effects on the other phases of the SCC response to ADH (MDCK-C7 cells [1]; 100 nM or 1 μM, 18 hrs pre-incubation): no significant effects
- initial rapid transient SCC response to ADH (MDCK-C7 cells [1]; 100 nM, n=4, p<0.05 vs controls): significantly attenuated
- initial rapid transient SCC response to ADH (MDCK-C7 cells [1]; 1 μM, n=4, p<0.01 vs controls): significantly attenuated
- effect on baseline SCC (MDCK-C7 cells [1]; -10 to 0 minutes, before ADH, 18 hrs pre-incubation): no compound-related effect
- CFTR-mediated anion secretion in response to ADH stimulation (MDCK-C7 cells [1]; MDCK-C7 cells, summary statement): decreased
- initial rapid transient response to ADH (MDCK-C7 cells [1]; over the concentration range of 1 nM - 1 μM): inhibited
- cellular resistance of the monolayers (MDCK-C7 cells [2]): < 500 ohm cm^2

Compound: O=C(O)c1cc([N+](=O)[O-])ccc1NCCCc1ccccc1 [NPPB, reference compound]
- rapid transient ion transport response to ADH (MDCK-C7 cells [1]; 500 μM, added to apical bathing medium, 30 minutes before ADH): significantly diminish

Compound: N=C(N)NC(=O)c1nc(Cl)c(N)nc1N [amiloride, amiloride hydrochloride, reference compound]
- later sustained SCC (ion transport) response to ADH (MDCK-C7 cells [1]; amiloride 30 μM, apical media, hydrochloride): only blocks the later sustained SCC response; also recorded: decrease

Compound: [arg]-vasopressin (CYFQNCPRG-NH2; disulfide 1-6; UniProt P01185 20-28, looked up) [ADH, antidiuretic hormone used to stimulate ion transport, reference compound]
- short circuit current response on stimulation (MDCK-C7 cells [1]; 100 mU/ml, serosal bathing media, multiphasic response): rapid increase in short circuit current
